Experimental data published in patent US20060183043A1, “Electrophotographic photoreceptor containing pyridine-substituted asymmetric naphthalenetetracarboxylic acid diimide derivatives and electrophotographic imaging apparatus” (Samsung Electronics Co., Ltd., priority 2005, published 2006).

Assay: Solubility test (amount of organic solvent needed to completely dissolve 1 g of compound)
Assay type: physicochemical
Conditions: 1 g compound, room temperature, solvent added drop by drop with stirring
Description: 1 g of a compound to be tested was poured into a test tube with stirring at room temperature and solvents listed in Table 1 were slowly added drop by drop. The amounts of the solvents required to completely dissolve 1 g of the tested compound were measured.

| Amount of solvent required to completely dissolve 1 g of the tested compound: Acetone [g] | Amount of solvent required to completely dissolve 1 g of the tested compound: Chloroform [g] | Amount of solvent required to completely dissolve 1 g of the tested compound: Methylene chloride [g] | Amount of solvent required to completely dissolve 1 g of the tested compound: Tetrahydrofuran [g] | Structure (SMILES) |
| --- | --- | --- | --- | --- |
| 282 | 8.6 | 10.2 | 9.7 | CCc1ccc(C)nc1N1C(=O)c2ccc3c4c(ccc(c24)C1=O)C(=O)N(c1nc(C)ccc1CC)C3=O [Compound (40)] |
| 130 | 5.3 | 6.5 | 5.8 | CCc1ccc(C)nc1N1C(=O)c2ccc3c4c(ccc(c24)C1=O)C(=O)N(c1ccccc1)C3=O [Compound (1)] |
